This note sets out measurements from EP0619818B1, “IMIDAZOYLALKYL SUBSTITUTED WITH A SIX MEMBERED NITROGEN CONTAINING HETEROCYCLIC RING” (SCHERING CORPORATION, priority 1991, dated 1993).

The experiment addresses H3 receptors (Cavia porcellus, UniProt Q9JI35). Briefly: H3 Receptor Binding Assay. The note with it: guinea pig brain membranes; 3 nM [3H]R-α-methylhistamine or [3H]-N-methylhistamine; 30° for 30 min; 50 mM Tris, pH 7.5.

pKi: −log10 of the molar value.

H3 receptors, sequence (Q9JI35 whole entry): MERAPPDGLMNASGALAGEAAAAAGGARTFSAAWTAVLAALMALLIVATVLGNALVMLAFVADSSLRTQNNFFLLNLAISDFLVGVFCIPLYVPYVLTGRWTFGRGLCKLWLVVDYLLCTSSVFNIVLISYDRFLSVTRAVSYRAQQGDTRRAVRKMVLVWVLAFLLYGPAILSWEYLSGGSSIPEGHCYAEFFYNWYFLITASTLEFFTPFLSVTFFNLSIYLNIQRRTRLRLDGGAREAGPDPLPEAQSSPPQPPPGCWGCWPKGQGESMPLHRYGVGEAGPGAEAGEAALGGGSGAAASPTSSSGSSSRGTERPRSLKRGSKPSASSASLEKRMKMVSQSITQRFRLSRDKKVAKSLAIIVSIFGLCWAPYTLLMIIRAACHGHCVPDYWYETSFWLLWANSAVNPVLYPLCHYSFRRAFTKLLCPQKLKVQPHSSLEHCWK
Description: The animals used weighed 400-600 g. The tissue was homogenized using a Polytron in a solution of 50 mM Tris, pH 7.5. The final concentration of tissue in the homogenization buffer was 10% w/v. The homogenates were centrifuged at 1000 x g for 10 min. in order to remove clumps of tissue and debris. The resulting supernatants were then centrifuged at 50,000 x g for 20 min. in order to sediment the membranes, which were next washed 3 times in homogenization buffer (50,000 x g for 20 min. each). The membranes were frozen and stored at -70°C until needed.
All compounds to be tested were dissolved in DMSO and then diluted into the binding buffer (50 mM Tris, pH 7.5) such that the final concentration was 2 µg/mL with 0.1% DMSO. Membranes were then added (400 µg of protein) to the reaction tubes. The reaction was started by the addition of 3 nM [^3H]R-α-methylhistamine (8.8 Ci/mmol) or [^3H]-N-methylhistamine (80 Ci/mmol) and incubated at 30° for 30 min. Bound ligand was separated from unbound ligand by filtration, and the amount of radioactive ligand bound to the membranes was quantitiated by liquid scintillation spectrometry. All incubations were performed in duplicate and the standard error was less than 10% in all instances.

Regarding `CN1CCCC(Cc2c[nH]cn2)C1` (centres unmarked) [Compound 6.2], the pKi was 6.72. `c1nc(CC2CCNCC2)c[nH]1` [Compound 7.3] gave a pKi of 9.52.

A word on the pKi: it is the Ki on a negative log10 scale, so that one unit is a factor of ten. High values mean a low Ki, low ones a high Ki.
